From patent publication US20240277717A1, “APPLICATION OF GANCICLOVIR IN PREPAPRATION OF MEDICINE FOR TREATING ALLERGIC RHINITIS” (Union Hospital, Tongji Medical College, Huazhong University …, priority 2023, published 2024)

System: AR patients
Test: Specific cases: earlier treatment reported in the patient history
Assay type: in vivo, human

Q: With Omalizumab as the substance, how does the “nasal symptoms after earlier treatment (patient history)” value (Case 4, injected, before GCV) read?
A: Its value is “did not ameliorate”.

Q: And the “nasal symptoms after earlier treatment (patient history)” value (Case 5, before GCV)?
A: The value was “without any improvement”.
